In patent US20250326725A1, “PI4-Kinase Inhibitors and Methods of Using the Same” (The Board of Trustees of the Leland Stanford Junior …, priority 2019, published 2025) one finds EC50 and CC50 data, which are given here for eleven molecules.

pEC50: −log10 of the molar value.

One data set has as its system EV68. Kind of data set: EV68 antiviral assay (EC50). Type of data set: cell-based.
A further data set deals with HCV. The data set is described as follows: Anti-HCV assay (EC50). Type of data set: cell-based. To be noted: Hepatitis C virus, read-out: HCV EC50. Here is the method: Anti-HCV assay: Anti-HCV assays are performed as described by Cho et al. “Identification of a class of HCV inhibitors directed against the nonstructural protein NS4B.” Sci. Transl. Med. 2011; 2(15):15ra6.

A further data set has as its system EV71. Kind of data set: EV71 antiviral assay (EC50). Type of data set: cell-based, Enterovirus 71. To be noted: Enterovirus A, EV71.
Data set [1] can be described thus: Cell toxicity (CC50) in EV71 assay. The conditions noted are these: EV71 CC50.
Data set [2] is described as follows: Cell toxicity (CC50) in EV68 assay. The conditions noted are these: EV68 CC50.
Data set [3] is described as follows: Cell toxicity (CC50) in HRV assay. The conditions noted are these: human, HRV CC50.

With `COCC(C)(C)Nc1nc(C)c(-c2ccc(OC)c(S(=O)(=O)Nc3c(C)cccc3F)c2)s1` [Compound S-63], the pEC50 was 8.47 with EV68, 8.82 in the data set on HCV and 8.08 in the data set on EV71. Moreover, the CC50 amounted to 83800 nM in data set [1], 40600 nM in data set [2] and 27700 nM in data set [3].
As for `COc1ccc(-c2sc(NC(C)(C)C3CCOCC3)nc2C)cc1S(=O)(=O)NC1CCS(=O)(=O)CC1` [Compound S-11], the figures for the pEC50 in the data set on EV68, with HCV and with EV71 were 5.42, 7.24 and 8.14, respectively. The results for the cytotoxic concentration (CC50) in data set [1], in data set [2] and in data set [3] were 26000 nM, 43300 nM and 40700 nM, respectively.
As to `COc1ccc(-c2oc(NC(C)(C)c3ccccc3)nc2C)cc1S(=O)(=O)Nc1ccncc1C` [Compound S-46], the pEC50 in the data set on EV68 was 8.59; with HCV it was 9.05; in the data set on EV71, 9.40. Also, the CC50 was determined as 24500 nM in data set [1], 44500 nM in data set [2] and 52400 nM in data set [3].
With `COc1ccc(-c2sc(NC(C)(C)C3CCOCC3)nc2C)cc1S(=O)(=O)Nc1ccc(NC(C)=O)cc1` [Compound S-40], the results for the pEC50 in the data set with EV68, in the data set on HCV and with EV71 were 8.92, 9.70 and 10.12, respectively. The CC50 is 78100 nM in data set [1], 42700 nM in data set [2] and 40800 nM in data set [3].
As to `COc1ccc(-c2sc(NC(C)(C)C3CCOCC3)nc2C)cc1S(=O)(=O)Nc1ncccc1C` [Compound S-25], the pEC50 is 7.03 with EV68, 7.69 with HCV and 7.85 in the data set with EV71. For the same molecule, the CC50 amounted to 90700 nM in data set [1], 24000 nM in data set [2] and 24800 nM in data set [3].
Take `COc1ccc(-c2oc(NC(C)(C)c3cccnc3)nc2C)cc1S(=O)(=O)Nc1ccncc1C` [Compound S-48]: the pEC50 in the data set on EV68 was 6.66; in the data set with HCV it was 7.13; in the data set on EV71 it was 8.35. Further, the CC50 in data set [1], in data set [2] and in data set [3] was 100000 nM in each case.
Consider `COc1ccc(-c2sc(NC(C)(C)C3CCNCC3)nc2C)cc1S(=O)(=O)Nc1ccc(F)cc1Cl` [Compound S-52], for which the pEC50 was 4.00 in the data set on EV68, 4.12 in the data set on HCV and 4.12 with EV71. In addition, the cytotoxic concentration (CC50) worked out at 3070 nM in data set [1], 2230 nM in data set [2] and 2320 nM in data set [3].
With `COc1ccc(-c2sc(NC(C)(C)c3ccccc3)nc2C)cc1S(=O)(=O)NC1CCNCC1` [Compound S-41], the pEC50 in the data set with EV68 is 7.23; with HCV it was 8.00; with EV71, 9.05. In addition, the figures for the CC50 in data set [1], in data set [2] and in data set [3] were 776 nM, 2090 nM and 1900 nM, respectively.
Consider `COc1ccc(-c2sc(NC3(C4CCOCC4)CC3)nc2C)cc1S(=O)(=O)Nc1ccccc1Cl` [Compound S-19], for which the pEC50 was 4.66 with EV68, 7.50 with HCV and 7.80 with EV71. Besides, the CC50 in data set [1] was determined as 18300 nM; in data set [2], 39400 nM; in data set [3], 37700 nM.
With `COc1ccc(-c2sc(NC(C)(C)C3CCOCC3)nc2C)cc1S(=O)(=O)NC1CCN(C(C)=O)CC1` [Compound S-12], the negative logarithm of the EC50 (pEC50) in the data set with EV68 was 6.97; in the data set on HCV it was 7.76; in the data set on EV71 it was 8.39. Also, the figures for the CC50 in data set [1], in data set [2] and in data set [3] were 53800 nM, 66200 nM and 65900 nM, respectively.
On to `COC(=O)N1CCC(NS(=O)(=O)c2cc(-c3sc(NC(C)(C)c4ccccc4)nc3C)ccc2OC)CC1` [Compound S-36], for which the pEC50 with EV68 was 9.15; in the data set on HCV it was 10.00; in the data set on EV71 it was 10.00. The CC50 in data set [1] is 71300 nM; in data set [2], 5230 nM; in data set [3], 30500 nM.
